# Reference: patent US9056887B2, “Minor groove binder phosphoramidites and methods of use” (Elitech Holding B.V., priority 2011, dated 2015)
# Assay: Solubility of MGB phosphoramidites in acetonitrile (oligonucleotide synthesis solvent)
# Type: physicochemical
# Conditions: standard solvent for on-line oligosynthesis
# Protocol: Activated pentafluorophenyl ester 1 of the DPI3 type of minor groove bindinding ligands was prepared as previously described (U.S. Pat. No. 7,381,818) and coupled with four secondary amine-containing terminal functions generatin trimers 2(a-d), (Reaction Scheme 1, FIG. 1) suitable for following protection and phosphoramidite preparation. The use of secondary amino function prevents the possibility of the formation of acyclic side-product (Basel and Hassner 2000) during the following protection step. The trimers 2(a-d) were reacted with diethyl pyrocarbonate in the presence of DMAP to protect the three heteroaromatic indolamino groups and afford carbomates 3(a-d). Methyl and tert-butyl dicarbonates were also tested and produced the respective carbamates with good yields. […] Therefore, the ethylcarbamate protection was concluded to be optimal allowing fast deprotection and providing the required solubility in acetonitrile. […]
# Test octathymidylates were synthesized on an ABI 3900 DNA synthesizer using thymidine-5′- or 3′-phosphoramidites and a DMT-O-hexylsuccinate solid support. […] Crude reaction mixtures were concentrated in a SpeedVac evaporator and analyzed by mass spectroscopy to confirm molecular weight and determine purity of crude MGB-oligonucleotide conjugates. […]
compound,measurement,value
CCOC(=O)n1c(-c2ccc(OCCCCCCOP(OCCC#N)N(C(C)C)C(C)C)cc2)nc2cc(-c3nc4cc(-c5nc6cc(N7CCN(C)CC7)ccc6n5C(=O)OCC)ccc4n3C(=O)OCC)ccc21 (stereo not shown) [Phosphoramidite 25],solubility in acetonitrile,only sparingly soluble
